Measurements published in patent US6750349B2, “Gastrokinetic monocyclic benzamides of 3-or 4-substituted 4-(aminoethyl)-piperidine derivatives” (Janssen Pharmaceutics, N.V., priority 1997, dated 2004).

Tested on: conscious dogs
Test: Gastric emptying of an acaloric liquid test meal delayed by administration of lidamidine, in conscious dogs
Type: in vivo, beagle dogs
Settings: conscious dog; for ΔT/T^b (acceleration of gastric emptying of a liquid meal delayed by lidamidine): dose of 0.0025 mg/kg; for ΔT/T^a (acceleration of gastric emptying of a liquid meal delayed by lidamidine): dose of 0.01 mg/kg
Text: C.1. Gastric Emptying of an Acaloric Liquid Test Meal Delayed by Administration of Lidamidine, in Conscious Dogs
Female beagle dogs, weighing 7-14 kg, were trained to stand quietly in Pavlov frames. They were implanted with a gastric cannula under general anesthesia and aseptic precautions. After a median laparatomy, an incision was made through the gastric wall in the longitudinal direction between the greater and the lesser curve, 2 cm above the nerves of Latarjet. The cannula was secured to the gastric wall by means of a double purse string suture and brought out via a stab wound at the left quadrant of the hypochondrium. Dogs were allowed a recovery period of at least two weeks. Experiments were started after a fasting period of 24 hours, during which water was available ad libitum. At the beginning of the experiment, the cannula was opened in order to remove any gastric juice or food remnants.
The stomach was cleansed with 40 to 50 ml lukewarm water. The test compound was administered I.V. (in a volume≦3 ml via the vena cephalica), S. C. (in a volume≦3 ml) or P. O. (in a volume of 1 ml/kg body weight, applied intragastrically via the cannula with a device that filled the lumen of the cannula; after injection of the test compound, 5 ml NaCl 0.9% was injected in order to correct for the dead space in the injection system). Immediately after administration of the test compound or its solvent, lidamidine 0.63 mg/kg was administered subcutaneously. 30 min later, the cannula was opened to determine the amount of fluid present in the stomach, promptly followed by reintroduction of the fluid. Then the test meal was administered via the cannula. This test meal consisted of 250 ml distilled water containing glucose (5 g/l) as a marker. The cannula remained closed for 30 min, whereafter the gastric contents were drained from the stomach to measure total volume (t=30 min). For later analysis 1 ml of the gastric contents was taken, promptly followed by reintroduction of the rest volume into the stomach. This sequence was repeated 4 times with 30 min intervals (t=60, 90, 120, 150 min).
In the 1 ml samples of the gastric contents, the glucose concentrations were measured on a Hitachi 717 automatic analyzer by the hexokinase method (Schmidt, 1961).
Curves were fitted to the measurement points (glucose versus time) using weighed non-linear regression analysis. Gastric emptying was quantified as the time needed to empty 70% of the meal (t70%). The control emptying time was calculated as the mean t70% of the last 5 solvent experiments of the same dog. Acceleration of delayed gastric emptying (Δt) was calculated as the time difference between t70% compound and t70% solvent. To correct for variations in emptying rate between dogs, Δt was expressed as % of t70% solvent (Schuurkes et al, 1992)).

[1] = compounds, Δt = t70% compound minus t70% solvent, relative to t70% solvent

Row | Compound | ΔT/T^b (acceleration of gastric emptying of a liquid meal delayed by lidamidine) [1] | ΔT/T^a (acceleration of gastric emptying of a liquid meal delayed by lidamidine) [1] | ΔT/T^b (acceleration of gastric emptying of a liquid meal delayed by lidamidine) (intermediates) | ΔT/T^a (acceleration of gastric emptying of a liquid meal delayed by lidamidine) (intermediates)
1 | CCCCN1CC[C@@H](CNC(=O)c2cc(Cl)c(N)c(OC)c2OC)[C@H](O)C1.O (racemic) [Compound 9, (±)-trans-4-amino-N-[(1-butyl-3-hydroxy-4-piperidinyl)methyl] -5-chloro-2,3-dimethoxybenzamide monohydrate] | −0.29 | −0.55 | −0.40 | −0.31
2 | COCCCN1CC[C@@H](CNC(=O)c2cc(Cl)c(N)c(OC)c2OC)[C@H](O)C1 (racemic) [Compound 11, (±)-trans-4-amino-5-chloro-N-[[3-hydroxy-1-(3-methoxypropyl)-4-piperidinyl]methyl]-2,3-dimethoxybenzamide] | −0.62 | −0.59 |  | 
3 | COc1c(C(=O)NC[C@@H]2CCN(CCCC(C)=O)C[C@H]2O)cc(Cl)c(N)c1OC.O (racemic) [Compound 14, (±)-trans-4-amino-5-chloro-N-[[3-hydroxy-1-(4-oxopentyl)-4-piperidinyl]methyl]-2,3-dimethoxybenzamide monohydrate] | −0.52 | −0.67 |  | 
